In patent US20100298141A1, “SUBSTITUTED PYRIDINE N-OXIDE HERBICIDES” (E. I. DU PONT DE NEMOURS AND COMPANY, priority 2007, published 2010):

Assays:
[1] = test system: Italian ryegrass; assay: Test C pre-/postemergence test; format: in vivo, Lolium multiflorum; settings: for Plant response rating, Ryegrass, Italian: 31 g ai/ha, scale 0 to 100 (0 no effect, 100 complete control)
Procedure, shortened: (§1)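 Seeds were planted and treated preemergence with test chemical in a non-phytotoxic solvent mixture containing surfactant. Postemergence applications of the same formulation went onto plants 2 to 18 cm tall (1- to 4-leaf stage). A dash marks no test result.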

[2] = test system: velvetleaf; assay: Test C pre-/postemergence test; format: in vivo, Abutilon theophrasti; settings: for Plant response rating, Velvetleaf: 31 g ai/ha, scale 0 to 100 (0 no effect, 100 complete control)
Procedure, shortened: as §1

[3] = test system: crabgrass; assay: Test C pre-/postemergence test; format: in vivo, Digitaria sanguinalis; settings: for Plant response rating, Crabgrass, Large: 31 g ai/ha, scale 0 to 100 (0 no effect, 100 complete control)
Procedure, shortened: as §1

[4] = test system: johnsongrass; assay: Test C pre-/postemergence test; format: in vivo, Sorghum halepense; settings: for Plant response rating, Johnsongrass: 31 g ai/ha, scale 0 to 100 (0 no effect, 100 complete control)
Procedure, shortened: as §1

[5] = test system: Goosegrass; assay: Test C pre-/postemergence test; format: in vivo, Eleusin indica; settings: for Plant response rating, Goosegrass: 31 g ai/ha, scale 0 to 100 (0 no effect, 100 complete control)
Procedure, shortened: as §1

[6] = test system: giant foxtail; assay: Test C pre-/postemergence test; format: in vivo, Setaria faberii; settings: for Plant response rating, Foxtail, Giant: 31 g ai/ha, scale 0 to 100 (0 no effect, 100 complete control)
Procedure, shortened: as §1

[7] = test system: common (oilseed) sunflower; assay: Test C pre-/postemergence test; format: in vivo, Helianthus annuus; settings: for Plant response rating, Sunflower: 31 g ai/ha, scale 0 to 100 (0 no effect, 100 complete control)
Procedure, shortened: as §1

[8] = test system: morningglory; assay: Test C pre-/postemergence test; format: in vivo, Ipomoea coccinea; settings: for Plant response rating, Morningglory: 31 g ai/ha, scale 0 to 100 (0 no effect, 100 complete control)
Procedure, shortened: as §1

[9] = test system: barnyardgrass; assay: Test A pre-/postemergence greenhouse test; format: in vivo, Echinochloa crus-galli; settings: for Plant response rating, Barnyardgrass: 0 to 100 scale where 0 is no effect and 100 is complete control; for Barnyardgrass plant response rating: 0 to 100 scale
Procedure, shortened: (§2)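 Pots of loam–sand soil sown with the test species are sprayed preemergence on the soil surface; emerged seedlings (1–2 leaves, 2–10 cm) are sprayed postemergence at the same time. The vehicle is a non-phytotoxic solvent mixture with surfactant. Injury is scored visually after ~10 d in greenhouse.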

[10] = test system: umbrella sedge; assay: Test C flooded paddy test; format: in vivo, Cyperus difformis; settings: Flood
Procedure, shortened: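 Visual injury ratings against untreated controls, taken 13 to 15 days after compound was added to paddy water standing 3 cm above the soil.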

[11] = test system: eastern black nightshade; assay: Test C pre-/postemergence test; format: in vivo, Solanum ptycanthum; settings: for Plant response rating, Nightshade: 31 g ai/ha, scale 0 to 100 (0 no effect, 100 complete control)
Procedure, shortened: as §1

[12] = test system: Surinam grass; assay: Test C pre-/postemergence test; format: in vivo, Brachiaria decumbens; settings: for Plant response rating, Surinam Grass: 31 g ai/ha, scale 0 to 100 (0 no effect, 100 complete control)
Procedure, shortened: as §1

[13] = test system: crabgrass; assay: Test A pre-/postemergence greenhouse test; format: in vivo, Digitaria sanguinalis; settings: for Plant response rating, Crabgrass, Large: 0 to 100 scale where 0 is no effect and 100 is complete control; for Crabgrass, Large plant response rating: 0 to 100 scale
Procedure, shortened: as §2

[14] = test system: wheat; assay: Test A pre-/postemergence greenhouse test; format: in vivo, Triticum aestivum; settings: for Plant response rating, Wheat: 0 to 100 scale where 0 is no effect and 100 is complete control; for Wheat plant response rating: 0 to 100 scale
Procedure, shortened: as §2

[15] = test system: pigweed; assay: Test C pre-/postemergence test; format: in vivo, Amaranthus retroflexus; settings: for Plant response rating, Pigweed: 31 g ai/ha, scale 0 to 100 (0 no effect, 100 complete control)
Procedure, shortened: as §1

[16] = test system: corn; assay: Test A pre-/postemergence greenhouse test; format: in vivo, Zea mays; settings: for Plant response rating, Corn: 0 to 100 scale where 0 is no effect and 100 is complete control; for Corn plant response rating: 0 to 100 scale
Procedure, shortened: as §2

[17] = test system: corn; assay: Test C pre-/postemergence test; format: in vivo, Zea mays; settings: for Plant response rating, Corn: 31 g ai/ha, scale 0 to 100 (0 no effect, 100 complete control)
Procedure, shortened: as §1

[18] = 62 g ai/ha, Preemergence, scale 0 to 100
[19] = 125 g ai/ha, preemergence, scale 0 (no effect) to 100 (complete control)
[20] = preemergence, 250 g ai/ha, scale 0 (no effect) to 100 (complete control)
[21] = Postemergence, 500 g ai/ha, 0 is no effect, 100 is complete control
[22] = Preemergence, 125 g ai/ha, 0 no effect, 100 complete control
[23] = 62 g ai/ha, scale 0 to 100 (0 no effect, 100 complete control)
[24] = 250 g ai/ha, scale 0 to 100, 0 no effect, 100 complete control, 13 to 15 days

## Cn1nc(OC(F)F)c(CS(=O)(=O)c2cccc[n+]2[O-])c1C(F)(F)F [Compound 80]
[1]; [18]
  Ryegrass, Italian plant response rating: 70
[1]; [19]
  Ryegrass, Italian plant response rating: 85
[1]; Preemergence
  Plant response rating, Ryegrass, Italian: 0
[1]; [20]
  Ryegrass, Italian plant response rating: 90
[2]; [18]
  Velvetleaf plant response rating: 0
[2]; [19]
  Velvetleaf plant response rating: 60
[2]; Preemergence
  Plant response rating, Velvetleaf: 0
[2]; [20]
  Velvetleaf plant response rating: 65
[3]; [18]
  Crabgrass, Large plant response rating: 85
[3]; [19]
  Crabgrass, Large plant response rating: 85
[3]; Preemergence
  Plant response rating, Crabgrass, Large: 85
[3]; [20]
  Crabgrass, Large plant response rating: 98
[4]; [18]
  Johnsongrass plant response rating: 85
[4]; [19]
  Johnsongrass plant response rating: 90
[4]; Preemergence
  Plant response rating, Johnsongrass: 85
[4]; [20]
  Johnsongrass plant response rating: 100
[5]; [18]
  Goosegrass plant response rating: 98
[5]; [19]
  Goosegrass plant response rating: 100
[5]; Preemergence
  Plant response rating, Goosegrass: 80
[5]; [20]
  Goosegrass plant response rating: 100
[6]; [18]
  Foxtail, Giant plant response rating: 90
[6]; [19]
  Foxtail, Giant plant response rating: 98
[6]; Preemergence
  Plant response rating, Foxtail, Giant: 80
[6]; [20]
  Foxtail, Giant plant response rating: 100
[7]; [18]
  Sunflower plant response rating: 20
[7]; [19]
  Sunflower plant response rating: 40
[7]; Preemergence
  Plant response rating, Sunflower: 5
[7]; [20]
  Sunflower plant response rating: 45
[8]; [19]
  Morningglory plant response rating: 100
[8]; Preemergence
  Plant response rating, Morningglory: 10
[9]; Postemergence, 125 g ai/ha
  Plant response rating, Barnyardgrass: 80
[9]; [21]
  Barnyardgrass plant response rating: 90
[9]; [22]
  Barnyardgrass plant response rating: 90
[9]; Preemergence, 500 g ai/ha
  Plant response rating, Barnyardgrass: 100
[10]; [23]
  Plant response rating, Sedge, Umbrella: 0
[10]; [24]
  Plant response rating, Sedge, Umbrella: 85
[11]; [18]
  Nightshade plant response rating: 80
[11]; Preemergence
  Plant response rating, Nightshade: 50
[11]; [20]
  Nightshade plant response rating: 90
[12]; [18]
  Surinam Grass plant response rating: 80
[12]; [19]
  Surinam Grass plant response rating: 80
[12]; Preemergence
  Plant response rating, Surinam Grass: 70
[12]; [20]
  Surinam Grass plant response rating: 100
[13]; Postemergence, 125 g ai/ha
  Plant response rating, Crabgrass, Large: 40
[13]; [21]
  Crabgrass, Large plant response rating: 80
[13]; [22]
  Crabgrass, Large plant response rating: 80
[13]; Preemergence, 500 g ai/ha
  Plant response rating, Crabgrass, Large: 90
[14]; Postemergence, 125 g ai/ha
  Plant response rating, Wheat: 30
[14]; [21]
  Wheat plant response rating: 60
[14]; [22]
  Wheat plant response rating: 10
[14]; Preemergence, 500 g ai/ha
  Plant response rating, Wheat: 80
[15]; [18]
  Pigweed plant response rating: 0
[15]; [19]
  Pigweed plant response rating: 0
[15]; Preemergence
  Plant response rating, Pigweed: 0
[15]; [20]
  Pigweed plant response rating: 0
[16]; Postemergence, 125 g ai/ha
  Plant response rating, Corn: 0
[16]; [21]
  Corn plant response rating: 50
[16]; [22]
  Corn plant response rating: 0
[16]; Preemergence, 500 g ai/ha
  Plant response rating, Corn: 60
[17]; [18]
  Corn plant response rating: 35
[17]; [19]
  Corn plant response rating: 90
[17]; Preemergence
  Plant response rating, Corn: 30
[17]; [20]
  Corn plant response rating: 98

## Cn1nc(C(F)(F)F)c(C[S+]([O-])c2cccc[n+]2[O-])c1OCC(F)F (stereo not drawn) [Compound 75]
[1]; [18]
  Ryegrass, Italian plant response rating: 70
[1]; [19]
  Ryegrass, Italian plant response rating: 100
[1]; Preemergence
  Plant response rating, Ryegrass, Italian: 0
[1]; [20]
  Ryegrass, Italian plant response rating: 100
[2]; [18]
  Velvetleaf plant response rating: 100
[2]; [19]
  Velvetleaf plant response rating: 100
[2]; Preemergence
  Plant response rating, Velvetleaf: 100
[2]; [20]
  Velvetleaf plant response rating: 100
[3]; [18]
  Crabgrass, Large plant response rating: 85
[3]; [19]
  Crabgrass, Large plant response rating: 100
[3]; Preemergence
  Plant response rating, Crabgrass, Large: 40
[3]; [20]
  Crabgrass, Large plant response rating: 100
[4]; [18]
  Johnsongrass plant response rating: 85
[4]; [19]
  Johnsongrass plant response rating: 100
[4]; Preemergence
  Plant response rating, Johnsongrass: 50
[4]; [20]
  Johnsongrass plant response rating: 100
[5]; [18]
  Goosegrass plant response rating: 85
[5]; [19]
  Goosegrass plant response rating: 100
[5]; Preemergence
  Plant response rating, Goosegrass: 80
[5]; [20]
  Goosegrass plant response rating: 100
[6]; [18]
  Foxtail, Giant plant response rating: 85
[6]; [19]
  Foxtail, Giant plant response rating: 100
[6]; Preemergence
  Plant response rating, Foxtail, Giant: 80
[6]; [20]
  Foxtail, Giant plant response rating: 100
[7]; [18]
  Sunflower plant response rating: 50
[7]; [19]
  Sunflower plant response rating: 100
[7]; Preemergence
  Plant response rating, Sunflower: 0
[7]; [20]
  Sunflower plant response rating: 100
[8]; [18]
  Morningglory plant response rating: 100
[8]; [19]
  Morningglory plant response rating: 100
[8]; Preemergence
  Plant response rating, Morningglory: 30
[8]; [20]
  Morningglory plant response rating: 100
[9]; Postemergence, 125 g ai/ha
  Plant response rating, Barnyardgrass: 60
[9]; [21]
  Barnyardgrass plant response rating: 80
[9]; [22]
  Barnyardgrass plant response rating: 80
[9]; Preemergence, 500 g ai/ha
  Plant response rating, Barnyardgrass: 100
[10]; [23]
  Plant response rating, Sedge, Umbrella: 50
[10]; [24]
  Plant response rating, Sedge, Umbrella: 85
[11]; [18]
  Nightshade plant response rating: 98
[11]; [19]
  Nightshade plant response rating: 100
[11]; Preemergence
  Plant response rating, Nightshade: 0
[11]; [20]
  Nightshade plant response rating: 100
[12]; [18]
  Surinam Grass plant response rating: 100
[12]; [19]
  Surinam Grass plant response rating: 100
[12]; Preemergence
  Plant response rating, Surinam Grass: 60
[12]; [20]
  Surinam Grass plant response rating: 100
[13]; Postemergence, 125 g ai/ha
  Plant response rating, Crabgrass, Large: 70
[13]; [21]
  Crabgrass, Large plant response rating: 80
[13]; [22]
  Crabgrass, Large plant response rating: 70
[13]; Preemergence, 500 g ai/ha
  Plant response rating, Crabgrass, Large: 100
[14]; Postemergence, 125 g ai/ha
  Plant response rating, Wheat: 50
[14]; [21]
  Wheat plant response rating: 70
[14]; [22]
  Wheat plant response rating: 70
[14]; Preemergence, 500 g ai/ha
  Plant response rating, Wheat: 100
[15]; [18]
  Pigweed plant response rating: 100
[15]; [19]
  Pigweed plant response rating: 100
[15]; Preemergence
  Plant response rating, Pigweed: 100
[15]; [20]
  Pigweed plant response rating: 100
[16]; Postemergence, 125 g ai/ha
  Plant response rating, Corn: 50
[16]; [21]
  Corn plant response rating: 70
[16]; [22]
  Corn plant response rating: 0
[16]; Preemergence, 500 g ai/ha
  Plant response rating, Corn: 70
[17]; [18]
  Corn plant response rating: 60
[17]; [19]
  Corn plant response rating: 95
[17]; Preemergence
  Plant response rating, Corn: 60
[17]; [20]
  Corn plant response rating: 98
